Assay results taken from ChEMBL document CHEMBL1649189, “Avian Aspergillus fumigatus strains resistant to both itraconazole and voriconazole” (2009).
Converted amounts (≈) assume the structure as drawn.

Key:
Format in all cases: functional
[1] = test system: Aspergillus fumigatus; experiment: Antifungal activity against Aspergillus fumigatus isolate by broth microdilution method
[2] = test system: Aspergillus fumigatus; experiment: Antifungal activity against voriconalzole-resistant Aspergillus fumigatus isolate by broth microdilution method
[3] = test system: Aspergillus fumigatus; experiment: Antifungal activity against itraconazole-resistant Aspergillus fumigatus isolate by broth microdilution method

CCC(C)n1ncn(-c2ccc(N3CCN(c4ccc(OCC5COC(Cn6cncn6)(c6ccc(Cl)cc6Cl)O5)cc4)CC3)cc2)c1=O (stereo not drawn) [ITRACONAZOLE]
MIC50 [1]: 0.5 µg/mL (≈ 0.709 µM)
MIC90 [1]: 0.5 µg/mL (≈ 0.709 µM)
MIC [2]: > 16 µg/mL

C[C@@H](c1ncncc1F)[C@](O)(Cn1cncn1)c1ccc(F)cc1F [VORICONAZOLE]
MIC50 [1]: 0.25 µg/mL (≈ 0.716 µM)
MIC90 [1]: 0.5 µg/mL (≈ 1.43 µM)
MIC [3]: 4 µg/mL (≈ 11.5 µM)

C[C@@H]1[C@H](O)[C@@H](C)/C=C/C=C/C=C/C=C/C=C/C=C/C=C/[C@H](O[C@@H]2O[C@H](C)[C@@H](O)[C@H](N)[C@@H]2O)C[C@@H]2O[C@](O)(C[C@@H](O)C[C@@H](O)[C@H](O)CC[C@@H](O)C[C@@H](O)CC(=O)O[C@H]1C)C[C@H](O)[C@H]2C(=O)O [AMPHOTERICIN B]
MIC50 [1]: 2 µg/mL (≈ 2.16 µM)
MIC90 [1]: 2 µg/mL (≈ 2.16 µM)
